System: pentagastrin-stimulated acid secretion of the perfused rat stomach
Assay: Secretion-inhibiting action on the perfused rat stomach (pentagastrin-stimulated acid secretion, intraduodenal administration in vivo)
Details: anesthetized CD rat, female, pentagastrin 1 μg/kg i.v. infusion
From the text: Testing of the Secretion-Inhibiting Action on the Perfused Rat Stomach
In Table A which follows, the influence of the compounds according to the invention on the pentagastrin-stimulated acid secretion of the perfused rat stomach after intraduodenal administration in vivo is shown.
The abdomen of anesthetized rats (CD rat, female, 200-250 g; 1.5 g/kg i.m. urethane) was opened after tracheotomy by a median upper abdominal incision and a PVC catheter was fixed transorally in the esophagus and another via the pylorus such that the ends of the tube just projected into the gastric lumen. The catheter leading from the pylorus led outward into the right abdominal wall through a side opening.
After thorough rinsing (about 50-100 ml), warm (37° C.) physiological NaCl solution was continuously passed through the stomach (0.5 ml/min, pH 6.8-6.9; Braun-Unita I). The pH (pH meter 632, glass electrode EA 147; φ=5 mm, Metrohm) and, by titration with a freshly prepared 0.01 N NaOH solution to pH 7 (Dosimat 665 Metrohm), the secreted HCl were determined in the effluent in each case collected at an interval of 15 minutes.
The gastric secretion was stimulated by continuous infusion of […] (=1.65 ml/h) of i.v. pentagastrin (left femoral vein) about 30 min after the end of the operation (i.e. after determination of 2 preliminary fractions). […]

Compound | Inhibition of acid secretion (%) (dose 1 μmol/kg i.d.) | Inhibition of acid secretion (%) (dose 0.3 μmol/kg i.d.)
Cc1nc2c3c(ccn2c1C)[C@H](C)[C@H](O)CN3 [Example 8, (7S,8S,9R)-8-Hydroxy-2,3,7-trimethyl-7,8,9,10-tetrahydroimidazo[1.2-h][1.7]naphthyridine] | 93 | –
(7S,8S,9R)-7-Cyanomethyl-8-hydroxy-2,3-dimethyl-7,8,9,10-tetrahydroimidazo[1.2h]-[1.7]naphthyridine [Example 9] | – | 52

From patent US20040235883A1, “Alkyl-substituted imidazopyridines for the treatment of gastrointestinal disorders” (priority 2001, published 2004)
